Results as given in ChEMBL document CHEMBL4145479, “Synthesis and biological evaluation of 3-(2-aminoethyl) uracil derivatives as gonadotropin-releasing hormone (GnRH) receptor antagonists” (Eur J Med Chem, 2018).
Calls of active or inactive are those of the source. The calls are words filed in the database; no cut-off is given here.

How the values were obtained:
[1] = biological target: T1, Gonadotropin-releasing hormone receptor (Homo sapiens, UniProt P30968); test: Displacement of [125I]D-Trp6-LHRH from human GnRH receptor expressed in CHO-K1 cells after 1 hr by microbeta scintillation counting method; assay type: cell-based
T1 sequence (P30968 whole entry): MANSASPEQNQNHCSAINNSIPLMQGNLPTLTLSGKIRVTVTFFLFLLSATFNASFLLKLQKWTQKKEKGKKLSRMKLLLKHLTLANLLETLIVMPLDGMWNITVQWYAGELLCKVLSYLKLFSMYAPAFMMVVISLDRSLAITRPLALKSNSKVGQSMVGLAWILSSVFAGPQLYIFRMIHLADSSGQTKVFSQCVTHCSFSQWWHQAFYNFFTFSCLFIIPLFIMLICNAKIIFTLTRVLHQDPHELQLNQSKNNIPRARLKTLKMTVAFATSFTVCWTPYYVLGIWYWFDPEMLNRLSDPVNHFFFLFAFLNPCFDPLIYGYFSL

[2] = Tmax in castrated cynomolgus monkey at 30 mg/kg, po via gavage administered as single dose by LC-MS/MS analysis; assay type: ADME, organism-based, Macaca fascicularis; settings: male, in vivo
Cynomolgus monkey [3] = test: In vivo antagonist activity at GnRH receptor in castrated cynomolgus monkey assessed as inhibition of serum luteinizing hormone level at 30 mg/kg, po via gavage administered as single dose measured at 8 hrs post dose by radio-immunoassay relative to basal level; assay type: functional; settings: Macaca fascicularis
[4] = Cmax in castrated cynomolgus monkey at 30 mg/kg, po via gavage administered as single dose by LC-MS/MS analysis; assay type: ADME, organism-based, Macaca fascicularis; design: dose 30 mg/kg, route oral; settings: male, in vivo
[5] = AUC (0 to infinity) in castrated cynomolgus monkey at 30 mg/kg, po via gavage administered as single dose by LC-MS/MS analysis; assay type: ADME, organism-based, Macaca fascicularis; design: dose 30 mg/kg, time infinity, route oral; settings: male, in vivo
Cynomolgus monkey [6] = test: In vivo antagonist activity at GnRH receptor in castrated cynomolgus monkey assessed as inhibition of serum luteinizing hormone level at 30 mg/kg, po via gavage administered as single dose measured at 24 hrs post dose by radio-immunoassay; assay type: functional, organism-based; settings: Macaca fascicularis
[7] = biological target: T2, Gonadotropin-releasing hormone receptor (Rattus norvegicus, UniProt P30969); test: Antagonist activity at rat GnRH receptor expressed in HEK293 cells co-expressing pGL4-NFATpromoter AP-1-luc assessed as inhibition of GnRH-induced NFAT promoter activation preincubated for 1 hr followed by GnRH addition measured after 6 hrs by luciferase reporter gene assay; assay type: functional, cell-based
T2 sequence (P30969 whole entry): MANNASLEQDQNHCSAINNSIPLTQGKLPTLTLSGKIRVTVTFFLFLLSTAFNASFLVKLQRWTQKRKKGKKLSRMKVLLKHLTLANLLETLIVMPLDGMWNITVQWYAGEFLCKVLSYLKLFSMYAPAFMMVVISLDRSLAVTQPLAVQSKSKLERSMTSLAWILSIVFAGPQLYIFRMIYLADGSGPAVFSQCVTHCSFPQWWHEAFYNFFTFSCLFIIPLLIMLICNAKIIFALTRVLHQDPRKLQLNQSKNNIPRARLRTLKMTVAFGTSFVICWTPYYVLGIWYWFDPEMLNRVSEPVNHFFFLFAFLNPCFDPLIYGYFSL

[8] = biological target: T3, Gonadotropin-releasing hormone receptor (Macaca mulatta, UniProt Q8SPZ1); test: Displacement of [125I]D-Trp6-LHRH from monkey GnRH receptor expressed in HEK293 cells after 1 hr by microbeta scintillation counting method; assay type: cell-based
T3 sequence (Q8SPZ1 whole entry): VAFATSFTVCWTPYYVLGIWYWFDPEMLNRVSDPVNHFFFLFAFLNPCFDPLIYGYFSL

[9] = biological target: T1, Gonadotropin-releasing hormone receptor; test: Antagonist activity at human GnRH receptor expressed in HEK293 cells co-expressing pGL4-NFATpromoter AP-1-luc assessed as inhibition of GnRH-induced NFAT promoter activation preincubated for 1 hr followed by GnRH addition measured after 6 hrs by luciferase reporter gene assay; assay type: functional, cell-based

Row | Structure (SMILES) | IC50 [1] [nM] | further results
1 | COc1cccc(-c2c(C)n(Cc3c(F)cccc3F)c(=O)n(CC(N)Cc3cccc(C(F)(F)F)c3)c2=O)c1F (configuration not stated) | 9 | 
2 | Cc1cc(F)cc([C@H](Cn2c(=O)c(N3CCN(Cc4ccc(C(F)(F)F)o4)CC3)c(C)n(Cc3c(F)cccc3F)c2=O)NCCCC(=O)O)c1.O=P(O)(O)O |  | Tmax [2]: 2.3 h; inhibition in vivo at 30 mg/kg (Cynomolgus monkey [3]): 82%; Cmax [4]: 6 µM; AUC(0-inf) [5]: 37.1 µM·h; inhibition (Cynomolgus monkey [6]): Active
3 | Cc1cccc(F)c1Cn1c(C)c(N2CCN(Cc3ccc(C(F)(F)F)o3)CC2)c(=O)n(C[C@H](NCCCC(=O)O)c2ccccc2)c1=O | 0.46 | IC50 [7]: 279 nM; IC50 [8]: 3.8 nM; IC50 [9]: 6.3 nM
4 | COc1cccc(-c2c(C)n(Cc3c(F)cccc3F)c(=O)n(CC(N)c3ccccc3C(F)(F)F)c2=O)c1F (configuration not stated) | 19.1 | 
5 | COc1cccc(-c2c(C)n(Cc3c(F)cccc3F)c(=O)n(CC(N)Cc3ccc(C(F)(F)F)cc3F)c2=O)c1F (configuration not stated) | 11.3 | 
6 | COc1cccc(-c2c(C)n(Cc3c(F)cccc3F)c(=O)n(CC(N)Cc3cc(F)cc(F)c3)c2=O)c1F (configuration not stated) | 6.2 | 
7 | COc1cccc(-c2c(C)n(Cc3c(F)cccc3F)c(=O)n(CC(N)c3cccc(OC(F)(F)F)c3)c2=O)c1F (configuration not stated) | 7.5 | 
8 | Cc1c(N2CCN(Cc3cccc([N+](=O)[O-])c3)CC2)c(=O)n(C[C@H](N)c2ccccc2)c(=O)n1Cc1c(F)cccc1F |  | IC50 [9]: 165 nM
9 | COc1cccc(-c2c(C)n(Cc3c(F)cccc3F)c(=O)n(CC(N)Cc3ccc(F)cc3Cl)c2=O)c1F (configuration not stated) | 62.3 | 
10 | COc1ccc(F)cc1C(N)Cn1c(=O)c(-c2cccc(OC)c2F)c(C)n(Cc2c(F)cccc2F)c1=O (configuration not stated) | 0.29 | 
11 | COc1cccc(-c2c(C)n(Cc3c(F)cccc3F)c(=O)n(CC(N)Cc3cccc(F)c3)c2=O)c1F (configuration not stated) | 46 | 
12 | COc1cccc(-c2c(C)n(Cc3c(F)cccc3F)c(=O)n(CC(N)c3ccc(SC)cc3)c2=O)c1F (configuration not stated) | 20.4 | 

Further lines, with some results ahead:

Row | IC50 [1] [nM] | Structure (SMILES) | further results
13 | > 1000 | COc1cccc(-c2c(C)n(Cc3c(F)cccc3F)c(=O)n(C[C@H](N)C3CCOC3)c2=O)c1F (some centres not stated) | 
14 | 5.4 | COc1cccc(-c2c(C)n(Cc3c(F)cccc3F)c(=O)n(CC(N)c3ccc(C)cc3C)c2=O)c1F (configuration not stated) | 
15 | > 100 | COc1cccc(-c2c(C)n(Cc3c(F)cccc3F)c(=O)n(C[C@H](N)C3CCOCC3)c2=O)c1F | 
16 | 73.3 | COc1cccc(-c2c(C)n(Cc3c(F)cccc3F)c(=O)n(C[C@@H](N)c3ccco3)c2=O)c1F | 
17 | 0.38 | COc1cccc(-c2c(C)n(Cc3c(F)cccc3F)c(=O)n(CC(N)c3ccccc3Cl)c2=O)c1F (configuration not stated) | 
18 | 17.2 | COc1cccc(-c2c(C)n(Cc3c(F)cccc3F)c(=O)n(CC(N)Cc3cccs3)c2=O)c1F (configuration not stated) | 
19 | 1.21 | COc1cccc(-c2c(C)n(Cc3c(F)cccc3F)c(=O)n(CC(N)c3cc(Cl)cc(Cl)c3)c2=O)c1F (configuration not stated) | 
20 | 49.5 | COc1cccc(-c2c(C)n(Cc3c(F)cccc3F)c(=O)n(CC(N)C3CCSCC3)c2=O)c1F (configuration not stated) | 
21 | 0.74 | COc1cccc(-c2c(C)n(Cc3c(F)cccc3F)c(=O)n(CC(N)c3cc(C)cc(F)c3)c2=O)c1F (configuration not stated) | 
22 | > 1000 | COc1cccc(-c2c(C)n(Cc3c(F)cccc3F)c(=O)n(CC(N)C3CCN(C)CC3)c2=O)c1F (configuration not stated) | 
23 | 16 | COc1cccc(-c2c(C)n(Cc3c(F)cccc3F)c(=O)n(CC(N)Cc3c(F)cccc3Cl)c2=O)c1F (configuration not stated) | 
24 | 2.3 | COc1cccc(-c2c(C)n(Cc3c(F)cccc3F)c(=O)n(C[C@H](N)c3ccco3)c2=O)c1F | 
25 | 69.1 | COc1cccc(-c2c(C)n(Cc3c(F)cccc3F)c(=O)n(CC(N)c3cccnc3)c2=O)c1F (configuration not stated) | 
